In one assay the test system is Ad-TSHR-immunized mice. Kind of assay: qualitative histological investigation of the thyroid. It counts as in vivo, BALB/c mice. The following applies: 9x AdTSHR-treated mice, 1 mg/kg IV 4-weekly. The procedure:
After euthanasia, dissection of the thyroid glands was performed under a stereomicroscope, as described before (22). Briefly, cross cuts at the level above the larynx and below the seventh cartilage ring were made and the glands with the tracheae and oesophagi were removed from the necks. Tissue blocks were kept in 4% neutral para-formaldehyde (PFA), washed in PBS 3 times and embedded in optimum cutting temperature (OCT) formulation (Tissue-Tek® O.C.T.™ compound, VWR Chemicals, Leuven, Belgium). Consecutive 5 μm-thick cross sections were cut at a fixed distance of 500 μm using a Leica microtome CM 1850 Cryostat (temperature at −19° C.) and mounted on Thermo Polysine slides (Thermo Scientific, Cat J2800AMNZ). The collected sections represented a total distance of ˜5-6 mm, and covered the whole thyroid region of each animal. The tissue sections were then stained with hematoxylin-eosin (HE) and examined using bright field illumination on a Zeiss upright microscope. Thyroid volumes (mm^3) were calculated from the sum of the areas of each section over the whole cutting region. Myocardial volumes (mm^3) were calculated in a similar way as described for thyroid glands from the sum of the areas of each section over whole cutting region (5 to 6 slides, depending on respective size of the hearts). The method has been described before (22). […]

The subject of assay [1] is TSHR-overexpressing CHO cells JP2626. Put plainly: ex vivo TSHR-dependent cAMP stimulation in test cells. It counts as cell-based, human. The following applies: 100 μg/ml test substance, anti-TSHR-antibody positive samples. How it is done: In FIG. 8 the effects of peptides on anti-TSHR antibody titers (A) and on cAMP stimulation in TSHR-expressing test cells (B) were studied ex vivo (anti-TSHR-antibody positive serum samples). Each measurement was carried out in 4 samples. Results are shown as % of untreated controls with standard errors of the means (SEM). Significance was tested by analysis of variance (ANOVA) between groups, followed by LSD post-hoc testing. **p<0.001, compared to controls
To investigate effects on TSHR-dependent cAMP stimulation ex vivo, TSHR-overexpressing CHO cells JP2626 were prepared as described above. Then, 100 μg/ml peptide 829, peptide of the invention 836 or fusion protein TSHR-Fc were added to the JP2626 cells. After incubation for 2.5 hours at 37° C. the cAMP release in the medium was measured in duplicates by a competitive immunoassay ELISA (#EMSCAMPL, Thermo Fisher Scientific, Waltham, Mass., USA).

In the case of “TSHR-Fc: fusion protein: first 289 amino acids of human TSH receptor (A-subunit), GGR linker and Fc portion of human IgG2”, in the assay on Ad-TSHR-immunized mice, the “mean histological scores of the thyroid” value is recorded as “markedly better compared to the vehicle-treated group”. In addition, the “cAMP-stimulating potency in TSHR-expressing test cells ex vivo” value in assay [1] is “reduction of titer and activity”.

Values taken from patent US11459375B2, “Cyclic peptides for the treatment of Graves' disease” (advanceCOR GmbH, priority 2017, dated 2022).
